Reference: patent US8772283B2, “Imidazo-oxazine compound or salt thereof” (Taiho Pharmaceutical Co., Ltd., priority 2011, dated 2014)
Where a name gives a salt, the structure may show the parent alone.

How the values were obtained:
[1] = target: human AKT1 (Homo sapiens (Human), UniProt P31749); test: AKT1 kinase activity inhibition (TR-FRET, biotinylated Crosstide substrate); format: biochemical; conditions: preincubation 120 min at 25° C.; ATP 150 μM; Crosstide 500 nM
Method: (§1) Preparation of AKT1 and AKT2 and measurement of in vitro inhibitory activity of the above-mentioned compounds against AKT1 and AKT2 kinase activity were carried out with reference to the method disclosed in Biochem. J. Vol. 385, pp 399-408 (2005). In the preparation of AKT1 and AKT2, human AKT1 and AKT2 to which a middle T antigen tag was added were expressed in Sf 9 insect cells, and then AKT1 and AKT2 were prepared following affinity purification and activation by PDK1. The prepared AKT1 and AKT2 were stored at −80° C. until the time of measurement of inhibitory activity of the compounds. In the measurement of inhibitory activity of the compounds, AKT1 or AKT2 and each compound of the present invention were preincubated at 25° C. for 120 minutes in a buffer solution for reaction (15 mM Tris-HCl pH 7.5, 0.01% Tween-20, 2 mM DTT). As a substrate, biotinylated Crosstide (bioton-KGSGSGRPRTSSFAEG), MgCl2, and ATP were added to final concentrations of 500 nM, 10 mM, and 150 μM, respectively, and reactions were carried out at 25° C. for 60 minutes. The reactions were stopped by adding EDTA to a final concentration of 80 mM. Then, a detection liquid in which an Eu-labeled anti-phosphorylation Crosstide antibody (PerkinElmer) and SureLight APC-SA (PerkinElmer) were contained at a final concentration of 0.5 nM and […], respectively, was added, and reactions were carried out at room temperature for 2 hours. Finally, the amount of fluorescence at the time of irradiation of excitation light having a wavelength of 337 nm was measured at dual wavelengths of 620 nm and 665 nm by PHERAstar FS (BMG LABTECH). The amount of phosphorylation was determined from the ratio of the fluorescence amounts at the dual wavelengths. The compound concentration at which phosphorylation can be inhibited by 50% was defined as […] (nM), and the results are shown in Table 4 below.

[2] = target: human AKT2 (Homo sapiens (Human), UniProt P31751); test: AKT2 kinase activity inhibition (TR-FRET, biotinylated Crosstide substrate); format: biochemical; conditions: preincubation 120 min at 25° C.; ATP 150 μM; Crosstide 500 nM
Method: as §1

Sequence of human AKT2 (P31751 whole entry): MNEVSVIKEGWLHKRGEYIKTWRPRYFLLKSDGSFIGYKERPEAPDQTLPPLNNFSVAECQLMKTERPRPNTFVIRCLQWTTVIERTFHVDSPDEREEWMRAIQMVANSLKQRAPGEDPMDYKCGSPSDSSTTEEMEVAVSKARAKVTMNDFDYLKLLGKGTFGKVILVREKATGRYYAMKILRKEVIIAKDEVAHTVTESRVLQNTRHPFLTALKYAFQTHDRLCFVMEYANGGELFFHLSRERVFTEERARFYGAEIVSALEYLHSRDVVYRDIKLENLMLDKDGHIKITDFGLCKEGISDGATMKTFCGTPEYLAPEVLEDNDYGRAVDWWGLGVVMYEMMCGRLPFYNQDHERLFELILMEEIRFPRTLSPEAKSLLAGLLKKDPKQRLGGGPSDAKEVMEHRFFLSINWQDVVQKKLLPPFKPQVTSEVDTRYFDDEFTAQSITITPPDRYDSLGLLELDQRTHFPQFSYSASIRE
Sequence of human AKT1 (P31749 whole entry): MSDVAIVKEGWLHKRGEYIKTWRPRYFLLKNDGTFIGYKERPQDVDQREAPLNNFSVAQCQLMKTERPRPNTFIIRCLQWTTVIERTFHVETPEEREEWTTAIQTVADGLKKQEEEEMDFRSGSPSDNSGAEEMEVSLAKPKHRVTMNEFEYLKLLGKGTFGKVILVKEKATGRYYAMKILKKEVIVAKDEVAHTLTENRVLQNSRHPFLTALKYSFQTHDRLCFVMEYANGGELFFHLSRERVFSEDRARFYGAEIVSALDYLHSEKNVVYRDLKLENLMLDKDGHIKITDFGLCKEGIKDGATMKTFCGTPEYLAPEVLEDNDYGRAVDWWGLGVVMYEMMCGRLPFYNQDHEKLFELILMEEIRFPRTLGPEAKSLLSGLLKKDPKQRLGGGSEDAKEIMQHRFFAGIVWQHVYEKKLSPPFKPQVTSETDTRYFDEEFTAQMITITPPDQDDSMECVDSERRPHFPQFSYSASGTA

Row | Molecule | IC50 [1] | IC50 [2]
1 | NC1(c2ccc(-c3nc4n(c3-c3ccccc3)COc3cnccc3-4)cc2)CCC1 [Example 37, 1-(4-(3-phenyl-5H-imidazo[1,2-c]pyrido[4,3-e][1,3]oxazin-2-yl)phenyl)cyclobutanamine] | 5.5 nM | 1.1 nM
2 | CC1(O)CC(N)(c2ccc(-c3nc4n(c3-c3ccccc3)COc3ncccc3-4)cc2)C1 (stereo not drawn) [Example 39, trans-3-amino-1-methyl-3-(4-(3-phenyl-5H-imidazo[1,2-c]pyrido[3,2-e][1,3]oxazin-2-yl)phenyl)cyclobutanol] | 1.4 nM | 0.97 nM
3 | NC1(c2ccc(-c3nc4n(c3-c3ccccc3)COc3ncccc3-4)cc2)CCC1 [Example 40, 1-(4-(3-phenyl-5H-imidazo[1,2-c]pyrido[3,2-e][1,3]oxazin-2-yl)phenyl)cyclobutanamine] | 3.9 nM | 1.6 nM
4 | CCC1(O)CC(N)(c2ccc(-c3nc4n(c3-c3ccccc3)COc3nccnc3-4)cc2)C1 (stereo not drawn) [Example 43, trans-3-amino-1-ethyl-3-(4-(3-phenyl-5H-imidazo[1,2-c]pyrazino[2,3-e][1,3]oxazin-2-yl)phenyl)cyclobutanol] | 8 nM | 7 nM
5 | CC1(O)CC(N)(c2ccc(-c3nc4n(c3-c3ccccc3)COc3cc(CO)ccc3-4)cc2)C1 (stereo not drawn) [Example 45, trans-3-amino-3-(4-(8-(hydroxymethyl)-3-phenyl-5H-benzo[e]imidazo[1,2-c][1,3]oxazin-2-yl)phenyl)-1-methylcyclobutanol] | 8.6 nM | 2.7 nM
6 | CC1(O)CC(N)(c2ccc(-c3nc4n(c3-c3ccccc3)COc3cc(C#N)ccc3-4)cc2)C1 (stereo not drawn) [Example 47, 2-(4-(trans-1-amino-3-hydroxy-3-methylcyclobutyl)phenyl)-3-phenyl-5H-benzo[e]imidazo[1,2-c][1,3]oxazine-8-carbonitrile] | 6.2 nM | 1.2 nM
7 | CC1(O)CC(N)(c2ccc(-c3nc4n(c3-c3ccccc3)COc3ccc(-c5cn[nH]c5)cc3-4)cc2)C1 (stereo not drawn) [Example 49, trans-3-amino-1-methyl-3-(4-(3-phenyl-9-(1H-pyrazol-4-yl)-5H-benzo[e]imidazo[1,2-c][1,3]oxazin-2-yl)phenyl)cyclobutanol] | 1.3 nM | 0.42 nM
8 | Cc1ccc2c(n1)-c1nc(-c3ccc(C4(N)CC(C)(O)C4)cc3)c(-c3ccccc3)n1CO2 (stereo not drawn) [Example 50, trans-3-amino-1-methyl-3-(4-(9-methyl-3-phenyl-5H-imidazo[1,2-c]pyrido[2,3-e][1,3]oxazin-2-yl)phenyl)cyclobutanol] | 11 nM | 0.85 nM
9 | COc1ccc2c(n1)-c1nc(-c3ccc(C4(N)CC(C)(O)C4)cc3)c(-c3ccccc3)n1CO2 (stereo not drawn) [Example 51, trans-3-amino-3-(4-(9-methoxy-3-phenyl-5H-imidazo[1,2-c]pyrido[2,3-e][1,3]oxazin-2-yl)phenyl)-1-methylcyclobutanol] | 5.5 nM | 1.1 nM
10 | CNC(=O)c1ccc2c(c1)-c1nc(-c3ccc([C@]4(N)C[C@](C)(O)C4)cc3)c(-c3ccccc3)n1CO2 [Example 52, 2-(4-(trans-1-amino-3-hydroxy-3-methylcyclobutyl)phenyl)-N-methyl-3-phenyl-5H-benzo[e]imidazo[1,2-c][1,3]oxazine-9-carboxamide] | 1.5 nM | 0.28 nM
11 | CC1(O)CC(N)(c2ccc(-c3nc4n(c3-c3ccccc3)COc3ccc(C(N)=O)cc3-4)cc2)C1 (stereo not drawn) [Example 53, 2-(4-(trans-1-amino-3-hydroxy-3-methylcyclobutyl)phenyl)-3-phenyl-5H-benzo[e]imidazo[1,2-c][1,3]oxazine-9-carboxamide] | 1.6 nM | 0.26 nM
12 | CN(C)C(=O)c1ccc2c(c1)-c1nc(-c3ccc(C4(N)CC(C)(O)C4)cc3)c(-c3ccccc3)n1CO2 (stereo not drawn) [Example 54, 2-(4-(trans-1-amino-3-hydroxy-3-methylcyclobutyl)phenyl)-N,N-dimethyl-3-phenyl-5H-benzo[e]imidazo[1,2-c][1,3]oxazine-9-carboxamide] | 4.4 nM | 1.3 nM
13 | CCNC(=O)c1ccc2c(c1)-c1nc(-c3ccc(C4(N)CC(C)(O)C4)cc3)c(-c3ccccc3)n1CO2 (stereo not drawn) [Example 55, 2-(4-(trans-1-amino-3-hydroxy-3-methylcyclobutyl)phenyl)-N-ethyl-3-phenyl-5H-benzo[e]imidazo[1,2-c][1,3]oxazine-9-carboxamide] | 1.8 nM | 0.31 nM
14 | CN(C)C(=O)c1ccc2c(c1)OCn1c-2nc(-c2ccc(C3(N)CC(C)(O)C3)cc2)c1-c1ccccc1 (stereo not drawn) [Example 57, 2-(4-(trans-1-amino-3-hydroxy-3-methylcyclobutyl)phenyl)-N,N-dimethyl-3-phenyl-5H-benzo[e]imidazo[1,2-c][1,3]oxazine-8-carboxamide] | 15 nM | 3.5 nM
15 | CC1(O)CC(N)(c2ccc(-c3nc4n(c3-c3ccccc3)COc3cc(C(=O)NCCO)ccc3-4)cc2)C1 (stereo not drawn) [Example 58, 2-(4-(trans-1-amino-3-hydroxy-3-methylcyclobutyl)phenyl)-N-(2-hydroxyethyl)-3-phenyl-5H-benzo[e]imidazo[1,2-c][1,3]oxazine-8-carboxamide] | 3.1 nM | 0.7 nM
16 | CC1(O)CC(N)(c2ccc(-c3nc4n(c3-c3ccccc3)COc3ccc(C(=O)NCCO)cc3-4)cc2)C1 (stereo not drawn) [Example 60, 2-(4-(trans-1-amino-3-hydroxy-3-methylcyclobutyl)phenyl)-N-(2-hydroxyethyl)-3-phenyl-5H-benzo[e]imidazo[1,2-c][1,3]oxazine-9-carboxamide] | 2.4 nM | 0.57 nM
17 | CCONC(=O)c1ccc2c(c1)-c1nc(-c3ccc([C@]4(N)C[C@](C)(O)C4)cc3)c(-c3ccccc3)n1CO2 [Example 61, 2-(4-(trans-1-amino-3-hydroxy-3-methylcyclobutyl)phenyl)-N-ethoxy-3-phenyl-5H-benzo[e]imidazo[1,2-c][1,3]oxazine-9-carboxamide] | 1.8 nM | 0.4 nM
18 | CC1(O)CC(N)(c2ccc(-c3nc4n(c3-c3ccccc3)COc3cc(C(N)=O)ccc3-4)cc2)C1 (stereo not drawn) [Example 62, 2-(4-(trans-1-amino-3-hydroxy-3-methylcyclobutyl)phenyl)-3-phenyl-5H-benzo[e]imidazo[1,2-c][1,3]oxazine-8-carboxamide] | 1.3 nM | 0.4 nM
19 | CC1(O)CC(N)(c2ccc(-c3nc4n(c3-c3ccccc3)COc3ccc(C(=O)O)cc3-4)cc2)C1 (stereo not drawn) [Example 63, 2-(4-(trans-1-amino-3-hydroxy-3-methylcyclobutyl)phenyl)-3-phenyl-5H-benzo[e]imidazo[1,2-c][1,3]oxazine-9-carboxylic acid hydrochloride] | 5 nM | 0.91 nM
20 | CC1(O)CC(N)(c2ccc(-c3nc4n(c3-c3ccccc3)COc3cc(C(=O)O)ccc3-4)cc2)C1 (stereo not drawn) [Example 64, 2-(4-(trans-1-amino-3-hydroxy-3-methylcyclobutyl)phenyl)-3-phenyl-5H-benzo[e]imidazo[1,2-c][1,3]oxazine-8-carboxylic acid hydrochloride] | 3.1 nM | 0.94 nM
21 | trans-3-amino-1-methyl-3-(4-(3-phenyl-5H-imidazo[1,2-c]pyrazino[2,3-e][1,3]oxazin-2-yl)phenyl)cyclobutanol [Example 42] | 6.4 nM | 4 nM
